Source: the NIST ThermoML archive (doi:10.1021/je049895b)

Experiment: xn = mol fraction of the nth substance listed
Conditions: 101.33 kPa, Liquid; for viscosity: Capillary tube (Ostwald / Ubbelohde) method

C1CCCC1 [cyclopentane] + CCOC(=O)OCC
Conditions	mass density [kg/m3]	speed of sound [m/s]	viscosity [mPa·s]
293.15 K, x2 = 0	744.43	1232	0.438
293.15 K, x2 = 0.0491	757.21	1219	0.44
293.15 K, x2 = 0.0999	770.43	1209	0.445
293.15 K, x2 = 0.1898	793.45	1196	0.462
293.15 K, x2 = 0.2872	817.88	1186	0.486
293.15 K, x2 = 0.3894	842.77	1180	0.518
293.15 K, x2 = 0.5009	868.92	1178	0.559
293.15 K, x2 = 0.6023	891.92	1179	0.601
293.15 K, x2 = 0.7021	913.9	1181	0.646
293.15 K, x2 = 0.8053	935.69	1186	0.696
293.15 K, x2 = 0.9032	955.62	1191	0.748
293.15 K, x2 = 0.952	965.36	1194	0.778
298.15 K, x2 = 0	739.47	1206	0.415
298.15 K, x2 = 0.0491	752.18	1194	0.416
298.15 K, x2 = 0.0999	765.34	1184	0.421
298.15 K, x2 = 0.1898	788.24	1172	0.437
298.15 K, x2 = 0.2872	812.58	1163	0.459
298.15 K, x2 = 0.3894	837.37	1157	0.489
298.15 K, x2 = 0.5009	863.47	1156	0.527
298.15 K, x2 = 0.6023	886.43	1157	0.564
298.15 K, x2 = 0.7021	908.38	1160	0.606
298.15 K, x2 = 0.8053	930.14	1165	0.654
298.15 K, x2 = 0.9032	950.04	1170	0.699
298.15 K, x2 = 0.952	959.78	1174	0.726
303.15 K, x2 = 0	734.47	1180	0.394
303.15 K, x2 = 0.0491	747.11	1169	0.396
303.15 K, x2 = 0.0999	760.19	1159	0.399
303.15 K, x2 = 0.1898	782.99	1147	0.414
303.15 K, x2 = 0.2872	807.23	1139	0.435
303.15 K, x2 = 0.3894	831.95	1134	0.461
303.15 K, x2 = 0.5009	857.97	1133	0.496
303.15 K, x2 = 0.6023	880.91	1135	0.532
303.15 K, x2 = 0.7021	902.82	1138	0.57
303.15 K, x2 = 0.8053	924.56	1144	0.615
303.15 K, x2 = 0.9032	944.44	1150	0.655
303.15 K, x2 = 0.952	954.16	1153	0.68
308.15 K, x2 = 0	729.42	1154	0.374
308.15 K, x2 = 0.0491	741.99	1144	0.375
308.15 K, x2 = 0.0999	755	1134	0.379
308.15 K, x2 = 0.1898	777.7	1123	0.393
308.15 K, x2 = 0.2872	801.84	1115	0.412
308.15 K, x2 = 0.3894	826.49	1112	0.436
308.15 K, x2 = 0.5009	852.45	1111	0.47
308.15 K, x2 = 0.6023	875.35	1113	0.502
308.15 K, x2 = 0.7021	897.23	1117	0.537
308.15 K, x2 = 0.8053	918.94	1123	0.578
308.15 K, x2 = 0.9032	938.8	1129	0.616
308.15 K, x2 = 0.952	948.52	1133	0.638
313.15 K, x2 = 0	724.32	1129	0.355
313.15 K, x2 = 0.0491	736.82	1119	0.356
313.15 K, x2 = 0.0999	749.76	1110	0.36
313.15 K, x2 = 0.1898	772.35	1099	0.373
313.15 K, x2 = 0.2872	796.39	1092	0.391
313.15 K, x2 = 0.3894	820.95	1089	0.414
313.15 K, x2 = 0.5009	846.9	1089	0.444
313.15 K, x2 = 0.6023	869.75	1091	0.475
313.15 K, x2 = 0.7021	891.61	1096	0.508
313.15 K, x2 = 0.8053	913.29	1102	0.545
313.15 K, x2 = 0.9032	933.14	1109	0.58
313.15 K, x2 = 0.952	942.85	1112	0.6

C1CCCC1 [cyclopentane] + COC(=O)OC
Conditions	mass density [kg/m3]	speed of sound [m/s]	viscosity [mPa·s]
293.15 K, x2 = 0	744.43	1232	0.438
293.15 K, x2 = 0.0453	755.75	1219	0.429
293.15 K, x2 = 0.0871	766.47	1209	0.419
293.15 K, x2 = 0.1847	792.72	1192	0.417
293.15 K, x2 = 0.2915	823.38	1180	0.421
293.15 K, x2 = 0.3937	854.33	1174	0.432
293.15 K, x2 = 0.4904	884.96	1172	0.449
293.15 K, x2 = 0.5988	920.84	1174	0.472
293.15 K, x2 = 0.6963	954.64	1180	0.497
293.15 K, x2 = 0.8033	993.39	1190	0.531
293.15 K, x2 = 0.9028	1031.4	1204	0.573
293.15 K, x2 = 0.9532	1051.09	1212	0.601
298.15 K, x2 = 0	739.47	1206	0.415
298.15 K, x2 = 0.0453	750.69	1193	0.406
298.15 K, x2 = 0.0871	761.31	1184	0.397
298.15 K, x2 = 0.1847	787.29	1168	0.396
298.15 K, x2 = 0.2915	817.76	1156	0.398
298.15 K, x2 = 0.3937	848.47	1150	0.408
298.15 K, x2 = 0.4904	878.98	1148	0.422
298.15 K, x2 = 0.5988	914.7	1151	0.444
298.15 K, x2 = 0.6963	948.41	1157	0.468
298.15 K, x2 = 0.8033	987.01	1168	0.5
298.15 K, x2 = 0.9028	1024.85	1182	0.538
298.15 K, x2 = 0.9532	1044.57	1190	0.565
303.15 K, x2 = 0	734.47	1180	0.394
303.15 K, x2 = 0.0453	745.58	1168	0.385
303.15 K, x2 = 0.0871	756.09	1158	0.377
303.15 K, x2 = 0.1847	781.98	1143	0.374
303.15 K, x2 = 0.2915	812.07	1131	0.377
303.15 K, x2 = 0.3937	842.65	1125	0.386
303.15 K, x2 = 0.4904	872.96	1124	0.4
303.15 K, x2 = 0.5988	908.54	1127	0.419
303.15 K, x2 = 0.6963	942.13	1134	0.441
303.15 K, x2 = 0.8033	980.64	1145	0.472
303.15 K, x2 = 0.9028	1018.17	1160	0.507
303.15 K, x2 = 0.9532	1038.01	1168	0.528
308.15 K, x2 = 0	729.42	1154	0.374
308.15 K, x2 = 0.0453	740.41	1142	0.366
308.15 K, x2 = 0.0871	750.83	1133	0.358
308.15 K, x2 = 0.1847	776.38	1118	0.355
308.15 K, x2 = 0.2915	806.36	1107	0.357
308.15 K, x2 = 0.3937	836.73	1102	0.366
308.15 K, x2 = 0.4904	866.91	1101	0.379
308.15 K, x2 = 0.5988	902.34	1105	0.397
308.15 K, x2 = 0.6963	935.82	1111	0.418
308.15 K, x2 = 0.8033	974.2	1123	0.446
308.15 K, x2 = 0.9028	1011.88	1138	0.478
308.15 K, x2 = 0.9532	1031.41	1146	0.501
313.15 K, x2 = 0	724.32	1129	0.355
313.15 K, x2 = 0.0453	735.2	1117	0.348
313.15 K, x2 = 0.0871	745.51	1108	0.341
313.15 K, x2 = 0.1847	770.82	1093	0.338
313.15 K, x2 = 0.2915	800.54	1083	0.338
313.15 K, x2 = 0.3937	830.73	1078	0.346
313.15 K, x2 = 0.4904	860.7	1078	0.358
313.15 K, x2 = 0.5988	896.1	1082	0.377
313.15 K, x2 = 0.6963	929.45	1089	0.397
313.15 K, x2 = 0.8033	967.7	1101	0.424
313.15 K, x2 = 0.9028	1005.28	1116	0.454
313.15 K, x2 = 0.9532	1024.79	1125	0.472
